Data taken from patent US20190224166A1, “Compositions and Methods for Treating Muscle Loss” (Augusta University Research Institute, Inc., priority 2018, published 2019).

Tested on: quadriceps muscle
Test: Proteomic analysis of quadriceps muscle of aged mice treated with 1-methyl-D-tryptophan (Table 1, TOPPGENE enrichment)
Format: in vivo
Procedure: Female mice 22 months of age were obtained from the National Institute on Aging and treated with saline (vehicle) or 1-methyl-D-tryptophan (1-MT, Sigma, 452483, lot#MKBZ1441V) at a low dose (10 mg/kg BW) or at a high dose (100 mg/kg BW). Mice were treated daily for 4 weeks. Treatments were administered i.p. with an injection volume of 0.2 ml following IACUC approved procedures. Mice were euthanized by CO2 overdose and muscles harvested for analysis. One quadriceps muscle was snap frozen for proteomics and the other quadriceps muscle fixed in buffered formalin for paraffin embedding and trichrome staining. The tibialis anterior was placed in PBS for amplex red assay.
The IDO inhibitor, 1-methyl-D-tryptophan, blocks kynurenine production and reduces levels of ROS in muscle.

Compound: Cn1cc(C[C@@H](N)C(=O)O)c2ccccc21 [1MT]
- 1MT vs Control: UTP--glucose-1-phosphate uridylyltransferase (Q91ZJ5, GN = Ugp2): 0.9036
- 1MT vs Control: Trifunctional enzyme subunit beta, mitochondrial (Q99JY0, GN = Hadhb): 0.7
- 1MT vs Control: Aconitate hydratase, mitochondrial (Q99KI0, GN = Aco2): 0.8406
- 1MT vs Control: Electron transfer flavoprotein subunit alpha, mitochondrial (Q99LC5, GN = Etfa): 0.8462
- 1MT vs Control: O-acetyl-ADP-ribose deacetylase MACROD1 (Q922B1, GN = Macrod1): 0.9167
- 1MT vs Control: Nucleoside diphosphate kinase B (Q01768, GN = Nme2): 0.9242
- 1MT vs Control: Transitional endoplasmic reticulum ATPase (Q01853, GN = Vcp): 0.904
- 1MT vs Control: Ubiquitin-like modifier-activating enzyme 1 (Q02053, GN = Uba1): 0.5833
- 1MT vs Control: Voltage-dependent L-type calcium channel subunit alpha-1S (Q02789, GN = Cacna1s): 0.7143
- 1MT vs Control: ATP synthase subunit alpha, mitochondrial (Q03265, GN = Atp5a1): 0.6273
- 1MT vs Control: Corticosteroid-binding globulin (Q06770, GN = Serpina6): 0.3125
- 1MT vs Control: Short-chain specific acyl-CoA dehydrogenase, mitochondrial (Q07417, GN = Acads): 0.6
- 1MT vs Control: Protein-arginine deiminase type-2 (Q08642, GN = Padi2): 0.3438
- 1MT vs Control: Puromycin-sensitive aminopeptidase (Q11011, GN = Npepps): 0.5
- 1MT vs Control: 2-oxoglutarate dehydrogenase, mitochondrial (Q60597, GN = Ogdh): 0.4671
- 1MT vs Control: Voltage-dependent anion-selective channel protein 3 (Q60931, GN = Vdac3): 0.2609
- 1MT vs Control: Voltage-dependent anion-selective channel protein 1 (Q60932, GN = Vdac1): 0.3333
- 1MT vs Control: Peroxiredoxin-2 (Q61171, GN = Prdx2): 0.7895
- 1MT vs Control: Hydroxyacyl-coenzyme A dehydrogenase, mitochondrial (Q61425, GN = Hadh): 0.6364
- 1MT vs Control: Alpha-2-macroglobulin (Q61838, GN = A2m): 0.6316
- 1MT vs Control: Striated muscle-specific serine/threonine-protein kinase (Q62407, GN = Speg): 0.6667
- 1MT vs Control: 10 kDa heat shock protein, mitochondrial (Q64433, GN = Hspe1): 0.4
- 1MT vs Control: Glycerol-3-phosphate dehydrogenase, mitochondrial (Q64521, GN = Gpd2): 0.3077
- 1MT vs Control: Trifunctional purine biosynthetic protein adenosine-3 (Q64737, GN = Gart): 0.8
- 1MT vs Control (protein A2AUC9 Kelch-like protein 41, GN=Klhl41): 1.077
- 1MT vs Control (protein O08539 Myc box-dependent-interacting protein 1, GN=Bin1): 1.064
- 1MT vs Control (protein O70209 PDZ and LIM domain protein 3, GN=Pdlim3): 1.412
- 1MT vs Control (protein P04117 Fatty acid-binding protein, adipocyte, GN=Fabp4): 1.1
- 1MT vs Control (protein P05064 Fructose-bisphosphate aldolase A, GN=Aldoa): 1.096
- 1MT vs Control (protein P05132 cAMP-dependent protein kinase catalytic subunit alpha, GN=Prkaca): 1
- 1MT vs Control (protein P07309 Transthyretin, GN=Ttr): 2.5
- 1MT vs Control (protein P07310 Creatine kinase M-type, GN=Ckm): 1.182
- 1MT vs Control (protein P07758 Alpha-1-antitrypsin 1-1, GN=Serpina1a): 1.091
- 1MT vs Control (protein P08228 Superoxide dismutase [Cu—Zn], GN=Sod1): 1.273
- 1MT vs Control (protein P09103 Protein disulfide-isomerase, GN=P4hb): 1.077
- 1MT vs Control (protein P09411 Phosphoglycerate kinase 1, GN=Pgk1): 1.089
- 1MT vs Control (protein P10637 Microtubule-associated protein tau, GN=Mapt): 3
- 1MT vs Control (protein P10649 Glutathione S-transferase Mu 1, GN=Gstm1): 1.152
- 1MT vs Control (protein P13412 Troponin I, fast skeletal muscle, GN=Tnni2): 1.5
- 1MT vs Control (protein P13707 Glycerol-3-phosphate dehydrogenase [NAD(+)], cytoplasmic, GN=Gpd1): 1.072
- 1MT vs Control (protein P14231 Sodium/potassium-transporting ATPase subunit beta-2, GN=Atp1b2): 1
- 1MT vs Control (protein P15626 Glutathione S-transferase Mu 2, GN=Gstm2): 1.111
- 1MT vs Control (protein P16858 Glyceraldehyde-3-phosphate dehydrogenase, GN=Gapdh): 1.167
- 1MT vs Control (protein P17182 Alpha-enolase, GN=Eno1): 1.039
- 1MT vs Control (protein P17742 Peptidyl-prolyl cis-trans isomerase A, GN=Ppia): 1.176
- 1MT vs Control (protein P17751 Triosephosphate isomerase, GN=Tpi1): 1.136
- 1MT vs Control (protein P18826 Phosphorylase b kinase regulatory subunit alpha, skeletal muscle isoform, GN=Phka1): 1.143
- 1MT vs Control (protein P20029 78 kDa glucose-regulated protein, GN=Hspa5): 1.522
- 1MT vs Control (protein P21550 Beta-enolase, GN=Eno3): 1.063
- 1MT vs Control (protein P22599 Alpha-1-antitrypsin 1-2, GN=Serpina1b): 1.028
- 1MT vs Control (protein P23506 Protein-L-isoaspartate(D-aspartate) O-methyltransferase, GN=Pcmt1): 1
- 1MT vs Control (protein P23953 Carboxylesterase 1C, GN=Ces1c): 1.08
- 1MT vs Control (protein P26043 Radixin, GN=Rdx): 1.267
- 1MT vs Control (protein P26883 Peptidyl-prolyl cis-trans isomerase FKBP1A, GN=Fkbp1a): 1.5
- 1MT vs Control (protein P27546 Microtubule-associated protein 4, GN=Map4): 3
- 1MT vs Control (protein P28474 Alcohol dehydrogenase class-3, GN=Adh5): 1.176
- 1MT vs Control (protein P28654 Decorin, GN=Dcn): 1.36
- 1MT vs Control (protein P29699 Alpha-2-HS-glycoprotein, GN=Ahsg): 1.111
- 1MT vs Control (protein P31001 Desmin, GN=Des): 1.133
- 1MT vs Control (protein P45376 Aldose reductase, GN=Akr1b1): 1.064
- 1MT vs Control (protein P45591 Cofilin-2, GN=Cfl2): 1
- 1MT vs Control (protein P47791 Glutathione reductase, mitochondrial, GN=Gsr): 1.25
- 1MT vs Control (protein P47857 ATP-dependent 6-phosphofructokinase, muscle type, GN=Pfkm): 1.013
- 1MT vs Control (protein P50396 Rab GDP dissociation inhibitor alpha, GN=Gdi1): 1.1875
- 1MT vs Control (protein P51885 Lumican, GN=Lum): 1.231
- 1MT vs Control (protein P58252 Elongation factor 2, GN=Eef2): 1.092
- 1MT vs Control (protein P62631 Elongation factor 1-alpha 2, GN=Eef1a2): 1.256
- 1MT vs Control (protein P62908 40S ribosomal protein S3, GN=Rps3): 1
- 1MT vs Control (protein P63005 Platelet-activating factor acetylhydrolase IB subunit alpha, GN=Pafah1b1): 1.25
- 1MT vs Control (protein P63017 Heat shock cognate 71 kDa protein, GN=Hspa8): 1.016
- 1MT vs Control (protein P68134 Actin, alpha skeletal muscle, GN=Acta1): 1.126
- 1MT vs Control (protein P70296 Phosphatidylethanolamine-binding protein 1, GN=Pebp1): 1.024
- 1MT vs Control (protein P70402 Myosin-binding protein H, GN=Mybph): 1.156
- 1MT vs Control (protein P82349 Beta-sarcoglycan, GN=Sgcb): 1
- 1MT vs Control (protein P97384 Annexin A11, GN=Anxa11): 1.375
- 1MT vs Control (protein Q3TJD7 PDZ and LIM domain protein 7, GN=Pdlim7): 1.111
- 1MT vs Control (protein Q3TVI8 Pre-B-cell leukemia transcription factor-interacting protein 1, GN=Pbxip1): 1
- 1MT vs Control (protein Q3TXS7 26S proteasome non-ATPase regulatory subunit 1, GN=Psmd1): 1.333
- 1MT vs Control (protein Q3U0V1 Far upstream element-binding protein 2, GN=Khsrp): 1
- 1MT vs Control (protein Q3UZA1 CapZ-interacting protein, GN=Rcsd1): 1.2
- 1MT vs Control (protein Q5SX39 Myosin-4, GN=Myh4): 1.106
- 1MT vs Control (protein Q7TSH2 Phosphorylase b kinase regulatory subunit beta, GN=Phkb): 1.083
- 1MT vs Control (protein Q8BGQ7 Alanine--tRNA ligase, cytoplasmic, GN=Aars): 1.5
- 1MT vs Control (protein Q8BU85 Methionine-R-sulfoxide reductase B3, mitochondrial, GN=Msrb3): 2.5
- 1MT vs Control (protein Q8C7E7 Starch-binding domain-containing protein 1, GN=Stbd1): 1
- 1MT vs Control (protein Q8CGC7 Bifunctional glutamate/proline--tRNA ligase, GN=Eprs): 1.333
- 1MT vs Control (protein Q8CHP8 Phosphoglycolate phosphatase, GN=Pgp): 1
- 1MT vs Control (protein Q8CHS7 Dehydrogenase/reductase SDR family member 7C, GN=Dhrs7c): 2.667
- 1MT vs Control (protein Q8CHT0 Delta-1-pyrroline-5-carboxylate dehydrogenase, mitochondrial, GN=Aldh4a1): 1
- 1MT vs Control (protein Q8K4Z3 NAD(P)H-hydrate epimerase, GN=Apoa1bp): 1
- 1MT vs Control (protein Q8R1G2 Carboxymethylenebutenolidase homolog, GN=Cmbl): 1.235
- 1MT vs Control (protein Q8VCM7 Fibrinogen gamma chain, GN=Fgg): 1.25
- 1MT vs Control (protein Q8VHX6 Filamin-C, GN=Flnc): 1.059
- 1MT vs Control (protein Q9CPU0 Lactoylglutathione lyase, GN=Glo1): 1.095
- 1MT vs Control (protein Q9CZ30 Obg-like ATPase 1, GN=Ola1): 3.25
- 1MT vs Control (protein Q9D7X3 Dual specificity protein phosphatase 3, GN=Dusp3): 1.5
- 1MT vs Control (protein Q9D8N0 Elongation factor 1-gamma, GN=Eef1g): 1.1
- 1MT vs Control (protein Q9D172 ES1 protein homolog, mitochondrial, GN=D10Jhu81e): 1.2
- 1MT vs Control (protein Q9ESD7 Dysferlin, GN=Dysf): 3
- 1MT vs Control (protein Q9ET78 Junctophilin-2, GN=Jph2): 1.381
- 1MT vs Control (protein Q9ET80 Junctophilin-1, GN=Jph1): 1.143
- 1MT vs Control (protein Q9JKB3 Y-box-binding protein 3, GN=Ybx3): 1.333
- 1MT vs Control (protein Q9JKS4 LIM domain-binding protein 3, GN=Ldb3): 1.037
- 1MT vs Control (protein Q9QYG0 Protein NDRG2, GN=Ndrg2): 1.015
- 1MT vs Control (protein Q9R0Y5 Adenylate kinase isoenzyme 1, GN=Ak1): 1.133
- 1MT vs Control (protein Q9R062 Glycogenin-1, GN=Gyg1): 1.538
- 1MT vs Control (protein Q9WUZ7 SH3 domain-binding glutamic acid-rich protein, GN=Sh3bgr): 1.057
- 1MT vs Control (protein Q9Z1Z2 Serine-threonine kinase receptor-associated protein, GN=Strap): 1.5
- 1MT vs Control (protein Q9Z2U0 Proteasome subunit alpha type-7, GN=Psma7): 3
- 1MT vs Control (protein Q70KF4 Cardiomyopathy-associated protein 5, GN=Cmya5): 1
- 1MT vs Control (protein Q76MZ3 Serine/threonine-protein phosphatase 2A 65 kDa regulatory subunit A alpha isoform, GN=Ppp2r1a): 1.125
- 1MT vs Control (protein Q91VI7 Ribonuclease inhibitor, GN=Rnh1): 1.111
- 1MT vs Control (protein Q91YE8 Synaptopodin-2, GN=Synpo2): 1.077
- 1MT vs Control (protein Q99LX0 Protein deglycase DJ-1, GN=Park7): 1.194
- 1MT vs Control (protein Q99PR8 Heat shock protein beta-2, GN=Hspb2): 1.5
- 1MT vs Control (protein Q924M7 Mannose-6-phosphate isomerase, GN=Mpi): 1.111
- 1MT vs Control (protein Q04857 Collagen alpha-1(VI) chain, GN=Col6a1): 1.5
- 1MT vs Control (protein Q60864 Stress-induced-phosphoprotein 1, GN=Stip1): 1.167
- 1MT vs Control (protein Q61292 Laminin subunit beta-2, GN=Lamb2): 1
- 1MT vs Control (protein Q61584 Fragile X mental retardation syndrome-related protein 1, GN=Fxr1): 1
- 1MT vs Control (protein Q62234 Myomesin-1, GN=Myom1): 1.113
- 1MT vs Control (protein Q62446 Peptidyl-prolyl cis-trans isomerase FKBP3, GN=Fkbp3): 1.429
- 1MT vs Control (protein Q64105 Sepiapterin reductase, GN=Spr): 1.5
- 1MT vs Control (protein Q64727 Vinculin, GN=Vcl): 1.333
